Patent US10323021B2, “Triazoles as NR2B receptor inhibitors” (Janssen Pharmaceuticals, Inc., priority 2014, dated 2019)

Columns and labels:
rat NR1/NR2B receptor [1] = target: T1, rat NR1/NR2B receptor (Rattus norvegicus (Rat), UniProt P35439+Q00960); test: NR2B binding assay: inhibition of specific [3H]-Ifenprodil binding to the rat NR1/NR2B receptor; details: for inhibition at 1 µM: 1 μM test compound, read-out: NR2B binding assay % INH @ 1 μM; for inhibition at 10 µM: 10 μM test compound, read-out: NR2B binding assay % INH @ 10 μM; for IC50: rat brain membranes, [3H]-Ifenprodil, Hill-plot 2-parameter model
T1 sequence (Q00960 27-1482, other chains not shown): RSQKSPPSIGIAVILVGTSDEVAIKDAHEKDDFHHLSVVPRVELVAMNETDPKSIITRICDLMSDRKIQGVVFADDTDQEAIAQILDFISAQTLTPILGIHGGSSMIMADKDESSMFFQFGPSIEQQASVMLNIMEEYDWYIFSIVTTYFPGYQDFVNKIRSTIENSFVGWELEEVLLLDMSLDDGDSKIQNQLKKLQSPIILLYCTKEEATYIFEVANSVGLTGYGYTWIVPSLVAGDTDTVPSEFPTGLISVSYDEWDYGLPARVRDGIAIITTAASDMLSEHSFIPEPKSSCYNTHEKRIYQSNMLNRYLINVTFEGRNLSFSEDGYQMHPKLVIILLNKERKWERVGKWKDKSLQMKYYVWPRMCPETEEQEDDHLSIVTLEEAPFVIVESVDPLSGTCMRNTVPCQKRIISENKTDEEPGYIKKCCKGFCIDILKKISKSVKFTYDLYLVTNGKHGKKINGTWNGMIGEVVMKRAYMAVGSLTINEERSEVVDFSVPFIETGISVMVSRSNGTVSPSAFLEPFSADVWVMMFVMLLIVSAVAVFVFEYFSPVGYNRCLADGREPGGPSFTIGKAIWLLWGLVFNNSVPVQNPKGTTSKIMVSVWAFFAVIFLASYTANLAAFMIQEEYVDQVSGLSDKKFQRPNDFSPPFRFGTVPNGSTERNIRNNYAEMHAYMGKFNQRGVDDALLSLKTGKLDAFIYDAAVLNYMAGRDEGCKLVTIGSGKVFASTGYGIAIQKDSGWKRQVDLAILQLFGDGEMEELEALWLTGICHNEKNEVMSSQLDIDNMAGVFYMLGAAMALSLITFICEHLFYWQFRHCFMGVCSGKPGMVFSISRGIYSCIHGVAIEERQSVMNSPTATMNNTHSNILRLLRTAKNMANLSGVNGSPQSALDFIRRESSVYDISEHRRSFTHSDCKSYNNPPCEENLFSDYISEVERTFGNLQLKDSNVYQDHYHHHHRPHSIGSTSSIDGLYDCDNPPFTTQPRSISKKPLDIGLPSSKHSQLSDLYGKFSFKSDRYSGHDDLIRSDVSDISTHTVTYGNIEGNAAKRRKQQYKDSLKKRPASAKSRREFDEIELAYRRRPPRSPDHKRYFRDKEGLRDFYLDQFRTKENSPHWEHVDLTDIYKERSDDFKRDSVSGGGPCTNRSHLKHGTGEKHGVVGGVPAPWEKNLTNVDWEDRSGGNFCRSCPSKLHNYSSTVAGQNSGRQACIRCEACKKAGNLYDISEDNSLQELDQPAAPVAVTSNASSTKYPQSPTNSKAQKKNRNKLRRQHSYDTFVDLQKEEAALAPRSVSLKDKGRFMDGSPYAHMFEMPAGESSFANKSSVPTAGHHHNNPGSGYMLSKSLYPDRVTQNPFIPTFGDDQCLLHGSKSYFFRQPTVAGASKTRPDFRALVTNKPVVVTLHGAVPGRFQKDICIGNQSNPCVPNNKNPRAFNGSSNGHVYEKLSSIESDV
Method: Inhibition of Specific Binding to the Rat NR1/NR2B Receptor
Male Wistar rats (180 to 200 g) were killed by suffocation in a CO2 chamber for two minutes. Whole brains without cerebellum were removed and dissected on ice, placed into closed vials and stored at −70° C.
Membrane fractions were prepared and tested using standard techniques. At the time of the assay, 1 g of the brains was placed into 25 ml of 50 mM Tris/10 mM EDTA buffer, pH 7.1, (25 vol. per g of original tissue) and homogenized for 30 sec at 20000 rpm with an Ultraturrax T25 (Jahnke & Kunkel, IKA-Labortechnik, Staufen, Germany). The homogenate was centrifuged at 4° C. for 10 min at 48000 g (OPTIMA L-70, Beckman, Palo Alto, Calif. 94304, USA).
The supernatant was discarded and the pellet was homogenized on ice for 30 sec at 20000 rpm with an Ultraturrax and again centrifuged at 48000 g for 30 minutes at 4° C. The resulted pellet was resuspended in 25 ml of 50 mM Tris/10 mM EDTA buffer, homogenized for 30 sec with an Ultraturrax, aliquoted, frozen at −70° C. and stored until use.
After thawing on the day of the assay, a 5 ml membrane aliquot was centrifuged at 48000 g for 30 min at 4° C. The pellet was resuspended in 5 ml of 5 mM Tris/1 mM EDTA buffer, pH 7.4, homogenized for 30 sec at 20000 rpm with an Ultraturrax and centrifuged at 48000 g for 30 min at 4° C. This was repeated twice. The final pellet was homogenized in 5 ml of 5 mM Tris/1 mM EDTA buffer at 4° C. with an Ultraturrax and used for the Ifenprodil-binding assay as described in the following.
Nonspecific binding was estimated in the presence of […] CP101.606. The samples were incubated for 60 min. at 4° C.
The incubation was terminated by filtration of the membrane preparations using Filtermat B (Pharmacia, Uppsala Sweden) and a Micro Cell Harvester (Skatron, Lier, Norway). The Filtermat B had been presoaked with 1% polyethylene imine and carefully washed with 50 mM Tris/HCl-buffer pH 7.7 after the filtration to separate free and bound radioactivity.
The optimal amount of membrane preparation in the assay had been determined and optimized for each membrane preparation separately before the test.
For pipetting of the incubation mixture we routinely used the robot Biomek2000 (Fa. Beckman).
For determination of IC50 values the Hill-plot, 2-parameter-model was used.

rat NR1/NR2B receptor [2] = target: T1, rat NR1/NR2B receptor; test: RRNR2BB: inhibition of specific [3H]-Ifenprodil binding to the rat NR1/NR2B receptor; details: rat brain membranes, Hill-plot 2-parameter model
Method: After thawing on the day of the assay, a 5 ml membrane aliquote was centrifuged at 48000 g for 30 min at 4° C. […] This step was repeated twice. The final pellet was homogenized in 5 ml of 5 mM Tris/1 mM EDTA buffer at 4° C. with an Ultraturrax and used for the Ifenprodil-binding assay.
Nonspecific binding was estimated in the presence of 10 M CP101.606. The samples were incubated for 60 min. at 4° C.
Binding was terminated by filtration of the incubated membrane preparations using Filtermat B (Pharmacia, Uppsala Sweden) and a Micro Cell Harvester (Skatron, Lier, Norway). The Filtermat B had been presoaked with 1% polyethylenimine and carefully washed with 50 mM Tris/HCl-buffer pH=7.7 after the filtration to separate free and bound radioactivity.
For pipetting of the incubation mixture the robot Biomek2000 (Fa. Beckman) was used.
The specific binding in this assay was about 80%.

hERG receptor = hERG receptor (Homo sapiens (Human), UniProt Q12809); test: HERGBD: inhibition of specific [3H]-Dofetilide binding to the hERG receptor; details: HEK hERG membranes, Hill-plot 2-parameter model
hERG receptor, sequence (Q12809 whole entry): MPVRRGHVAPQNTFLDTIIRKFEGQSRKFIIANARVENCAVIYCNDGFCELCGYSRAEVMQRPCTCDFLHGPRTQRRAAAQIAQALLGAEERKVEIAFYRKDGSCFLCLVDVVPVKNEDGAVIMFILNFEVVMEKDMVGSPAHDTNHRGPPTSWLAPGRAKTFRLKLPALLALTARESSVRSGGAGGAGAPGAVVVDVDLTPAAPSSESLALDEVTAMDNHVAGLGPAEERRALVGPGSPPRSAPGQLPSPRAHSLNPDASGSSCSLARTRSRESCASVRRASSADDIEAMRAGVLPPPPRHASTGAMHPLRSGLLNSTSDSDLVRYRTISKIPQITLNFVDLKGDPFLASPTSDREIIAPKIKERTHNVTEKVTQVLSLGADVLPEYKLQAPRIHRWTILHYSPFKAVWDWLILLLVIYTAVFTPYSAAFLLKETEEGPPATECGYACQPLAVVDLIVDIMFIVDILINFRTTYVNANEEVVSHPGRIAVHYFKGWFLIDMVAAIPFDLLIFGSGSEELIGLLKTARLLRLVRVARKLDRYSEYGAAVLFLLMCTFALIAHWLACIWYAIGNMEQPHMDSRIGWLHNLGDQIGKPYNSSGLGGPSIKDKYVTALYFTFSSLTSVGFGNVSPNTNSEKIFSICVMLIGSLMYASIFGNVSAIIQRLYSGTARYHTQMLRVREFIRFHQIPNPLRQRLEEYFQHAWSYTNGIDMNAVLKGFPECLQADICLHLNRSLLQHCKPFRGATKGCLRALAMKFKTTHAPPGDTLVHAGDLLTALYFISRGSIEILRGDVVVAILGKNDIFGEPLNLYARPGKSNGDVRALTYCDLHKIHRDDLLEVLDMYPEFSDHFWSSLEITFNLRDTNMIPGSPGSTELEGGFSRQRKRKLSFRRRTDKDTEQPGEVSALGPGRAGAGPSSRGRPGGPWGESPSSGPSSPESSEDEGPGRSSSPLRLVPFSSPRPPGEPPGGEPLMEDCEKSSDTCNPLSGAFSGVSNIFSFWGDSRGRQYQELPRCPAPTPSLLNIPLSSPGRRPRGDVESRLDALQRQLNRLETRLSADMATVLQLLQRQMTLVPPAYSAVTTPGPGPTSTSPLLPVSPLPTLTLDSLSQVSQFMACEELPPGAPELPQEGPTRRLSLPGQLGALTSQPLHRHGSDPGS
Method: Inhibition of Specific Binding to the hERG—Receptor (HERGBD)
A HEK cell line with stable transfected human ERG receptor was used for the assay. The cells were grown adherently and maintained in DULBECCOS' MEM medium with 10% FBS, 1% non-essential amino acids, 1% Penicillin/Streptomycin and 400 μg/ml G418 (Calbiochem).
For binding assays and membrane preparations the cell culture medium was removed, cells were washed with PBS. Crude membranes for radioligand binding experiments were prepared by scraping the cells off the dishes in ice cold 20 mM HEPES/0.1 mM KCl/pH 7.2. […]
Binding was terminated by filtration of the incubated membrane preparations using Filtermat B (Pharmacia, Uppsala Sweden) and a Micro Cell Harvester (Skatron, Lier, Norway). The Filtermat B had been presoaked with 1% polyethylenimine and carefully washed with 0.05 M Tris/HCl-buffer pH=7.7 after the filtration to separate free and bound radioactivity. The filters were counted in a scintillation counter (Betaplate 1205, Berthold, Wildbad, Germany) in order to determine the specific binding of [^3H]-Dofetilide.
The optimal amount of membrane preparation in the assay was determined and optimized for each membrane preparation separately in front of using the membranes in compound testing.
The IC50 values in the table below were determined using the Hill-plot, 2-parameter-model.

Row | SMILES | inhibition at 1 µM (rat NR1/NR2B receptor [1]) [%] | inhibition at 10 µM (rat NR1/NR2B receptor [1]) [%] | IC50 (rat NR1/NR2B receptor [2]) [nM] | IC50 (hERG receptor) [nM] | IC50 (rat NR1/NR2B receptor [1]) [nM]
1 | Cc1nc(C2CCC2)nn1Cc1cn(-c2ccc(Cl)cc2)nn1 [Example 22, 1-(4-Chloro-phenyl)-4-(3-cyclobutyl-5-methyl-[1,2,4]triazol-1-ylmethyl)-1H-[1,2,3]triazole] | 14.5 | -2.2 |  |  | 
2 | Clc1ccc(-n2cc(Cn3ccnc3Cl)nn2)cc1 [Example 26, 4-(2-Chloro-imidazol-1-ylmethyl)-1-(4-chloro-phenyl)-1H-[1,2,3]triazole] | 28.7 | 51.4 |  |  | 
3 | CCc1ncn(Cc2cn(-c3ccc(Cl)cc3)nn2)n1 [Example 6, 1-(4-Chloro-phenyl)-4-(3-ethyl-[1,2,4]triazol-1-ylmethyl)-1H-[1,2,3]triazole] | 11.8 | 21.6 |  |  | 
4 | CCc1ncnn1Cc1cn(-c2ccc(Cl)cc2)nn1 [Example 5, 1-(4-Chloro-phenyl)-4-(5-ethyl-[1,2,4]triazol-1-ylmethyl)-1H-[1,2,3]triazole] | 1.2 | 30.1 |  |  | 
5 | CC(C)(C)c1nccn1Cc1cn(-c2ccc(Cl)cc2)nn1 [Example 30, 4-(2-tert-Butyl-imidazol-1-ylmethyl)-1-(4-chloro-phenyl)-1H-[1,2,3]triazole] | 12.7 | 53.2 |  |  | 
6 | CC(C)(C)c1ncnn1Cc1cn(-c2ccc(Cl)cc2)nn1 [Example 19, 4-(5-tert-Butyl-[1,2,4]triazol-1-ylmethyl)-1-(4-chloro-phenyl)-1H-[1,2,3]triazole] | 8.2 | 14.5 |  |  | 
7 | Clc1ccc(-n2cc(Cn3nc(C4CC4)nc3C3CC3)nn2)cc1 [Example 10, 1-(4-Chlorophenyl)-4-(3,5-dicyclopropyl-[1,2,4]triazol-1-ylmethyl)-1-[1,2,3]triazole] | -6 | 3.5 |  |  | 
8 | Cc1ncn(Cc2cn(-c3ccc(Cl)cc3)nn2)n1 [Example 9, 1-(4-Chloro-phenyl)-4-(3-methyl-[1,2,4]triazol-1-ylmethyl)-1H-[1,2,3]triazole] | 6.6 | 17.9 |  |  | 
9 | Clc1ccc(-n2cc(Cn3ncnc3C3CC3)nn2)cc1 [Example 16, 1-(4-Chloro-phenyl)-4-(5-cyclopropyl-[1,2,4]triazol-1-ylmethyl)-1H-[1,2,3]triazole] | 3.6 | 32.6 |  |  | 
10 | CC(C)(C)c1ncn(Cc2cn(-c3ccc(Cl)cc3)nn2)n1 [Example 20, 4-(3-tert-Butyl-[1,2,4]triazol-1-ylmethyl)-1-(4-chloro-phenyl)-1H-[1,2,3]triazole] | 27 | 15.3 |  |  | 
11 | Cc1nc(CO)n(Cc2cn(-c3ccccc3)nn2)n1 [Example 47, 4-(5-Hydroxymethyl-3-methyl-[1,2,4]triazol-1-ylmethyl)-1-phenyl-1H-[1,2,3]triazole] | 33.8 | -8.4 |  |  | 
12 | Cc1nc(C)n(Cc2cn(-c3ccc(Cl)cc3)nn2)n1 [Example 1, 1-(4-Chloro-phenyl)-4-(3,5-dimethyl-[1,2,4]triazol-1-ylmethyl)-1H-[1,2,3]triazole] | 12.4 | 31.5 |  |  | 
13 | Cc1ccc(C(=O)c2nccn2Cc2cn(-c3ccc(Cl)cc3)nn2)cc1 [Example 116, [1-[[1-(4-chlorophenyl)triazol-4-yl]methyl]imidazol-2-yl]-(p-tolyl)methanone] | -4.9 |  |  |  | 
14 | CC(C)c1ncn(Cc2cn(-c3ccc(Cl)cc3)nn2)n1 [Example 4, 1-(4-Chloro-phenyl)-4-(3-isopropyl-[1,2,4]triazol-1-ylmethyl)-1H-[1,2,3]triazole] | 21.6 | 2 |  |  | 
15 | FC(F)(F)c1ncn(Cc2cn(-c3ccc(Cl)cc3)nn2)n1 [Example 17, 1-(4-Chloro-phenyl)-4-(3-trifluoromethyl-[1,2,4]triazol-1-ylmethyl)-1H-[1,2,3]triazole] | 19.9 | 12.5 |  |  | 
16 | Cc1nc(C)n(Cc2cn(-c3ccccc3)nn2)n1 [Example 46, 4-(3,5-Dimethyl-[1,2,4]triazol-1-ylmethyl)-1-phenyl-1H-[1,2,3]triazole] | 9.3 | 7.4 |  |  | 

Row | SMILES | inhibition at 1 µM (rat NR1/NR2B receptor [1]) [%] | inhibition at 10 µM (rat NR1/NR2B receptor [1]) [%] | IC50 (rat NR1/NR2B receptor [2]) [nM] | IC50 (hERG receptor) [nM] | IC50 (rat NR1/NR2B receptor [1]) [nM]
17 | Clc1ccc(-n2cc(Cn3cnc(C4CC4)n3)nn2)cc1 [Example 13, 1-(4-Chloro-phenyl)-4-(3-cyclopropyl-[1,2,4]triazol-1-ylmethyl)-1H-[1,2,3]triazole] | 7.5 | 16.2 |  |  | 
18 | FCCc1nccn1Cc1cn(-c2cc(F)cc(C(F)F)c2)nn1 [Example 104, 1-(3-Difluoromethyl-5-fluoro-phenyl)-4-[2-(2-fluoro-ethyl)-imidazol-1-ylmethyl]-1H-[1,2,3]triazole] |  |  | 186 | 30600 | 186
19 | OCCc1nccn1Cc1cn(-c2ccc(S(F)(F)(F)(F)F)cc2)nn1 [Example 118, 2-(1-((1-(4-(pentafluoro-l6-sulfanyl)phenyl)-1H-1,2,3-triazol-4-yl)methyl)-1H-imidazol-2-yl)ethan-1-ol] |  |  | 263 |  | 263
20 | CCCc1ncn(Cc2cn(-c3ccc(Cl)cc3)nn2)n1 [Example 3, 1-(4-Chloro-phenyl)-4-(3-propyl-[1,2,4]triazol-1-ylmethyl)-1H-[1,2,3]triazole] | 18.3 | 4.5 |  |  | 
21 | Cc1nccn1Cc1cn(-c2ccc(F)c(C(C)(F)F)c2)nn1 [Example 105, 1-[3-(1,1-Difluoro-ethyl)-4-fluoro-phenyl]-4-(2-methyl-imidazol-1-ylmethyl)-1H-[1,2,3]triazole] |  |  |  | 23100 | 
22 | Clc1ccc(-n2cc(Cn3ncnc3C3CCC3)nn2)cc1 [Example 11, 1-(4-Chloro-phenyl)-4-(5-cyclobutyl-[1,2,4]triazol-1-ylmethyl)-1H-[1,2,3]triazole] | 8.7 | 41.5 |  |  | 
23 | CC(C)c1ncnn1Cc1cn(-c2ccc(Cl)cc2)nn1 [Example 7, 1-(4-Chloro-phenyl)-4-(5-isopropyl-[1,2,4]triazol-1-ylmethyl)-1H-[1,2,3]triazole] | 2.3 | 40.9 |  |  | 
24 | Cc1ncnn1Cc1cn(-c2ccc(Cl)cc2)nn1 [Example 8, 1-(4-Chloro-phenyl)-4-(5-methyl-[1,2,4]triazol-1-ylmethyl)-1H-[1,2,3]triazole] | 8.3 | 38.7 |  |  | 
25 | Cc1nc(CO)nn1Cc1cn(-c2ccccc2)nn1 [Example 48, 4-(3-Hydroxymethyl-5-methyl-[1,2,4]triazol-1-ylmethyl)-1-phenyl-1H-[1,2,3]triazole] | 29.6 | -17.1 |  |  | 
26 | CCCc1ncnn1Cc1cn(-c2ccc(Cl)cc2)nn1 [Example 2, 1-(4-Chloro-phenyl)-4-(5-propyl-[1,2,4]triazol-1-ylmethyl)-1H-[1,2,3]triazole] | 23.9 | 43 |  |  | 
27 | Clc1ccc(-n2cc(Cn3cnc(C4CCCC4)n3)nn2)cc1 [Example 15] | 6.4 | 22.2 |  |  | 
28 | Cc1nc(C2CCC2)n(Cc2cn(-c3ccc(Cl)cc3)nn2)n1 [Example 21, 1-(4-Chloro-phenyl)-4-(5-cyclobutyl-3-methyl-[1,2,4]triazol-1-ylmethyl)-1H-[1,2,3]triazole] | -1.6 | 6.8 |  |  | 
29 | Clc1ccc(-n2cc(Cn3ncnc3C3CCCC3)nn2)cc1 [Example 14, 1-(4-Chloro-phenyl)-4-(5-cyclopentyl-[1,2,4]triazol-1-ylmethyl)-1H-[1,2,3]triazole] |  | 49.6 |  |  | 
30 | Clc1ccc(-n2cc(Cn3cnc(C4CCC4)n3)nn2)cc1 [Example 12, 1-(4-Chloro-phenyl)-4-(3-cyclobutyl-[1,2,4]triazol-1-ylmethyl)-1H-[1,2,3]triazole] | -0.66 | 11 |  |  | 
31 | Cc1nncn1Cc1cn(-c2ccc(Cl)cc2)nn1 [Example 31, 1-(4-Chloro-phenyl)-4-(3-methyl-[1,2,4]triazol-4-ylmethyl)-1H-[1,2,3]triazole] | 3.7 | 2.2 |  |  | 
